What was measured:
[1] = Cytotoxicity against human HCT15 cells after 48 hrs by sulforhodamine B method; format: functional, cell-based; conditions: HCT-15, 48 h
K562 = assay: Cytotoxicity against human K562 cells after 48 hrs by sulforhodamine B method; format: functional, cell-based; conditions: K562, 48 h
MCF7 = assay: Cytotoxicity against human MCF7 cells after 48 hrs by sulforhodamine B method; format: functional, cell-based; conditions: MCF7, 48 h
PC-3 = assay: Cytotoxicity against human PC3 cells after 48 hrs by sulforhodamine B method; format: functional, cell-based; conditions: PC-3, 48 h
[2] = Cytotoxicity against human SKLU1 cells after 48 hrs by sulforhodamine B method; format: functional, cell-based; conditions: SK-LU-1, 48 h
U-251 = assay: Cytotoxicity against human U251 cells after 48 hrs by sulforhodamine B method; format: functional, cell-based; conditions: U-251, 48 h
Mus musculus = assay: Antiinflammatory activity in CD1 mouse assessed as reduction of TPA-induced ear edema per ear after 4 hrs; format: functional, organism-based

Measured: IC50

C[C@]12C[C@H](c3ccoc3)OC(=O)[C@H]1CCC1=C(/C=C\CC2=O)C(=O)OC1
> 1 µmol: Mus musculus
> 10 µM: all other assays above

C[C@]12C[C@H](c3ccoc3)OC(=O)[C@H]1CC[C@@]13COC(=O)C1=CC=C[C@@]32O
> 1 µmol: Mus musculus
> 10 µM: all other assays above
